Here are results for 31 compounds from patent publication US6559102B1, “Substituted 3-aryl-pyrazoles” (Bayer Aktiengesellschaft, priority 1998, dated 2003).

For orientation: melting point means the temperature, or range, at which the solid turns liquid.

The first series has as its system weeds. Put plainly: Post-emergence test (Example B), activity against weeds. In kind it is in vivo. The conditions noted are these: test plants 5-15 cm sprayed, rated after three weeks. The method, then:
Post-emergence Test Solvent: 5 parts by weight of acetone Emulsifier: 1 part by weight of alkylaryl polyglycol ether To produce a suitable preparation of active compound, 1 part by weight of active compound is mixed with the stated amount of solvent, the stated amount of emulsifier is added and the concentrate is diluted with water to the desired concentration. Test plants which have a height of 5-15 cm are sprayed with the preparation of the active compound in such a way as to apply the particular amounts of active compound desired per unit area. The concentration of the spray liquor is chosen so that the amounts of active compound desired in each case are applied in 1000 l of water/ha. After three weeks, the degree of damage to the plants is rated in % damage in comparison with the development of the untreated control. The figures denote: 0%=no effect (like untreated control) 100%=total destruction
Take `CCOC(=O)C(C)Oc1ccc(Oc2cc(-c3nn(C)c(OC(F)F)c3Br)c(F)cc2C#N)cc1` (stereo not shown) [Example 1, ethyl 2-[4-[2-cyano-5-[4-bromo-5-(difluoromethoxy)-1-methyl-1H-pyrazo-3-yl]-4-fluoro-phenoxy]-phenoxy]-propionate]: the “activity against weeds (degree of damage)” value is “strong activity against weeds”.

A further series concerns crop plants, such as, for example, barley, wheat, maize and soya. The experiment in a line: Pre-emergence test (Example A), compatibility with crop plants. The series is classed as in vivo. The following applies: rated after three weeks. The procedure:
(§1) Pre-emergence Test Solvent: 5 parts by weight of acetone Emulsifier: 1 part by weight of alkylaryl polyglycol ether To produce a suitable preparation of active compound, 1 part by weight of active compound is mixed with the stated amount of solvent, the stated amount of emulsifier is added and the concentrate is diluted with water to the desired concentration. Seeds of the test plants are sown in normal soil. After approximately 24 hours, the soil is sprayed with the preparation of the active compound in such a way as to apply the particular amount of active compound desired per unit area. The concentration of the spray liquor is chosen so that the amount of active compound desired in each case is applied in 1000 liter of water per hectare. After three weeks, the degree of damage to the plants is rated in % damage in comparison with the development of the untreated control. The figures denote: [table]
On to `CCOC(=O)C(C)Oc1ccc(Oc2cc(-c3nn(C)c(OC(F)F)c3Br)c(F)cc2C#N)cc1` (stereo not shown) [Example 1, ethyl 2-[4-[2-cyano-5-[4-bromo-5-(difluoromethoxy)-1-methyl-1H-pyrazo-3-yl]-4-fluoro-phenoxy]-phenoxy]-propionate], for which the “compatibility with crop plants” value was “good compatibility with crop plants”.

Tested on in the next series: not given
Assay: not given
Details: not given
As for `CCOC(=O)C(C)Oc1ccc(Oc2cc(-c3nn(C)c(OC(F)F)c3Br)c(F)cc2C#N)cc1` (stereo not shown) [Example 1, ethyl 2-[4-[2-cyano-5-[4-bromo-5-(difluoromethoxy)-1-methyl-1H-pyrazo-3-yl]-4-fluoro-phenoxy]-phenoxy]-propionate], the melting point is 60 °C.
Same read-out and setting: the value for `Cn1nc(-c2cc(Oc3ccccc3)c(C#N)cc2F)c(Cl)c1C(F)(F)F` [Example 2, 4-chloro-3-(4-cyano-2-fluoro-5-phenoxyphenyl)-1-methyl-5-trifluoromethyl-1H-pyrazole] was 123 °C.

A further series concerns weeds. The experiment in a line: Pre-emergence test (Example A), activity against weeds. The series is classed as in vivo. The conditions noted are these: soil sprayed about 24 hours after sowing, rated after three weeks. The procedure: as §1
As for `CCOC(=O)C(C)Oc1ccc(Oc2cc(-c3nn(C)c(OC(F)F)c3Br)c(F)cc2C#N)cc1` (stereo not shown) [Example 1, ethyl 2-[4-[2-cyano-5-[4-bromo-5-(difluoromethoxy)-1-methyl-1H-pyrazo-3-yl]-4-fluoro-phenoxy]-phenoxy]-propionate], the “activity against weeds (degree of damage)” value is “strong activity against weeds”.

Tested on in a further series: not listed separately
Put plainly: log P determination by HPLC, reversed-phase column (EEC Directive 79/831 Annex V.A8). The conditions noted are these: reversed-phase C 18, 43° C., acidic range: 0.1% aqueous phosphoric acid, acetonitrile, gradient 10% to 90% (data labelled a)). The series is classed as physicochemical. The method, then:
The log P values given in Table 1 were determined in accordance with the EEC Directive 79/831 Annex V.A8 by HPLC (High Performance Liquid Chromatography) using a reversed-phase column (C 18). Temperature: 43° C. (a) Mobile phases for the determination in the acidic range: 0.1% aqueous phosphoric acid, acetonitrile; linear gradient from 10% acetonitrile to 90% acetonitrile—the corresponding data are labelled a) in Table 1. (b) Mobile phases for the determination in the neutral range: 0.01 molar aqueous phosphate buffer solution, acetonitrile; linear gradient from 10% acetonitrile to 90% acetonitrile—the corresponding data are labelled b) in Table 1. The calibration was carried out using unbranched alkan-2-ones (having from 3 to 16 carbon atoms) whose log P values are known (determination of the log P values by the retention times by linear interpolation between two successive alkanones).
Regarding `Cn1nc(-c2cc(Oc3cccc(C(F)(F)F)c3)c(C#N)cc2F)c(Cl)c1OC(F)F` [Example 51], the “log P” value is given as “logP: 4.55^a)”.
As to `Cn1nc(-c2cc(Oc3ccc(C(F)(F)F)cc3)c(C#N)cc2F)c(Cl)c1OC(F)F` [Example 52], the “log P” value is recorded as “logP: 4.59^a)”.
Same read-out and setting: the value for `Cc1ccccc1Oc1cc(-c2nn(C)c(OC(F)F)c2Cl)c(F)cc1C#N` [Example 56] was “logP: 4.40^a)”; that for `Cc1cccc(Oc2cc(-c3nn(C)c(OC(F)F)c3Cl)c(F)cc2C#N)c1` [Example 57] was “logP: 4.43^a)”; that for `Cc1ccc(Oc2cc(-c3nn(C)c(OC(F)F)c3Cl)c(F)cc2C#N)cc1` [Example 58] was “logP: 4.45^a)”.
Still for that read-out and setting: the value for `COc1ccccc1Oc1cc(-c2nn(C)c(OC(F)F)c2Cl)c(F)cc1C#N` [Example 59] was “logP: 3.98^a)”; that for `COc1cccc(Oc2cc(-c3nn(C)c(OC(F)F)c3Cl)c(F)cc2C#N)c1` [Example 60] was “logP: 4.13^a)”.
The same measure, in the same setting: for `COc1ccc(Oc2cc(-c3nn(C)c(OC(F)F)c3Cl)c(F)cc2C#N)cc1` [Example 61] the value was “logP: 4.05^a)”; for `Cn1nc(-c2cc(Oc3ccccc3Cl)c(C#N)cc2F)c(Cl)c1OC(F)F` [Example 67], “logP: 4.28^a)”.
As to `Cn1nc(-c2cc(Oc3cccc(Cl)c3)c(C#N)cc2F)c(Cl)c1OC(F)F` [Example 68], the “log P” value was “logP: 4.49^a)”.
The same measure, in the same setting: the value for `Cn1nc(-c2cc(Oc3ccc(Cl)cc3)c(C#N)cc2F)c(Cl)c1OC(F)F` [Example 69] was “logP: 4.49^a)”; that for `Cn1nc(-c2cc(Oc3ccccc3F)c(C#N)cc2F)c(Cl)c1OC(F)F` [Example 70] was “logP: 4.02^a)”; that for `Cn1nc(-c2cc(Oc3cccc(F)c3)c(C#N)cc2F)c(Cl)c1OC(F)F` [Example 71] was “logP: 4.17^a)”.
Still for that read-out and setting: the value for `Cn1nc(-c2cc(Oc3ccc(F)cc3)c(C#N)cc2F)c(Cl)c1OC(F)F` [Example 72] was “logP: 4.13^a)”; that for `Cn1nc(-c2cc(Oc3ccc(OC(F)(F)F)cc3)c(C#N)cc2F)c(Cl)c1OC(F)F` [Example 76] was “logP: 4.70^a)”.
Still for that read-out and setting: for `CC(=O)c1ccc(Oc2cc(-c3nn(C)c(OC(F)F)c3Cl)c(F)cc2C#N)cc1` [Example 84] the value was “logP: 3.66^a)”.
Regarding `COc1cccc(Oc2cc(-c3nn(C)c(OC(F)F)c3Br)c(F)cc2C#N)c1OC` [Example 112], the “log P” value is listed as “logP: 3.80^a)”.
The same measure, in the same setting: the value for `CN(C)C(=O)c1ccccc1Oc1cc(-c2nn(C)c(OC(F)F)c2Cl)c(F)cc1C#N` [Example 115] was “logP: 3.20^a)”; that for `CN(C)c1cccc(Oc2cc(-c3nn(C)c(OC(F)F)c3Cl)c(F)cc2C#N)c1` [Example 116] was “logP: 4.38^a)”.
On the same count and under the same terms, for `Cn1nc(-c2cc(Oc3cccc(F)c3F)c(C#N)cc2F)c(Cl)c1OC(F)F` [Example 117] the value was “logP: 4.13^a)”; for `Cn1nc(-c2cc(Oc3ccc(Cl)c(Cl)c3)c(C#N)cc2F)c(Cl)c1OC(F)F` [Example 118], “logP: 4.89^a)”.
On the same count and under the same terms, for `CC(C)Oc1ccccc1Oc1cc(-c2nn(C)c(OC(F)F)c2Cl)c(F)cc1C#N` [Example 119] the value was “logP: 4.55^a)”; for `Cc1ccc(Oc2cc(-c3nn(C)c(OC(F)F)c3Cl)c(F)cc2C#N)cc1C` [Example 120], “logP: 4.74^a)”.
On to `CN(C)Cc1ccccc1Oc1cc(-c2nn(C)c(OC(F)F)c2Cl)c(F)cc1C#N` [Example 121], for which the “log P” value is reported as “logP: 2.03^a)”.
As to `CCN(CC)c1cccc(Oc2cc(-c3nn(C)c(OC(F)F)c3Cl)c(F)cc2C#N)c1` [Example 122], the “log P” value is “logP: 4.40^a)”.
Same read-out and setting: for `Cn1nc(-c2cc(Oc3cccc(OC(F)(F)F)c3)c(C#N)cc2F)c(Cl)c1OC(F)F` [Example 123] the value was “logP: 4.72^a)”; for `COc1cccc(Oc2cc(-c3nn(C)c(OC(F)F)c3Cl)c(F)cc2C#N)c1OC` [Example 124], “logP: 3.98^a)”.
Still for that read-out and setting: the value for `Cc1ccc(Cl)c(Oc2cc(-c3nn(C)c(OC(F)F)c3Cl)c(F)cc2C#N)c1` [Example 125] was “logP: 4.59^a)”.
Turning to `COc1ccc(Oc2cc(-c3nn(C)c(OC(F)F)c3Cl)c(F)cc2C#N)cc1OC` [Example 126], the “log P” value is given as “logP: 3.72^a)”.
